Source: patent US20140187594A1, “DIPHENYL ETHER COMPOUNDS FOR THE TREATMENT OF LIVER, LUNG DISORDERS, DIABETIC COMPLICATIONS AND CARDIOVASCULAR DISEASES” (ORCHID CHEMICALS AND PHARMACEUTICALS LTD, priority 2010, published 2014)

Experiments:
STZ induced diabetic rat = experiment: Lenticular degeneration in STZ induced type I diabetic model; assay type: in vivo, Sprague Dawley rats; conditions: 100 mg/kg for 2 months, FIG. 41
Description: The animal model was developed by injecting STZ to Sprague Dawley rats and kept for 10 weeks to develop diabetic complications. Initially animals were in hyperglycemic and chronically, developed several feature of diabetes and diabetic complications, which simulates human diabetes and complications. These features were treated as mentioned below. Forty male Sprague Dawley rats aged 6-8 weeks, body weight range between 150-190 g was used for this study. The animals were divided into two groups. First group (n=10) was treated as a normal control injected with normal saline and the second group (n=30) was treated with STZ (50 mg/kg, i.v.), (Sigma. USA). Body weight was recorded every week and blood glucose every month using glucometer (Contour TS, Bayer Healthcare Ltd.). Every week eyes were examined for cataractous changes. After 10 weeks of diabetes induction animals were grouped based on blood glucose levels and the severity of cataract. The first group served as normal control (n=10). The diabetic animals with cataract were divided into two groups, second group served as disease control (n=9) and third group was treated with compound of formula (A) (n=10) at 100 mg/kg dose for 2 months. At the last day of experiment animals were kept for 12 hours fasting, next day blood was collected, plasma separated and used for biochemical analysis. […] Data Analysis: The values are expressed as Mean±SE. […]

TNF-α = experiment: LPS induced serum TNF-α in vivo; design: species or system mice; conditions: 50 mg/kg/day oral, 10 days, LPS 400 μg/kg IP, FIG. 39
From the text: (§1) Based on the results obtained in the in-vitro studies, it can be concluded that Compounds A, B and C are moderately potent inhibitors of Aldose Reductase. […] At the end of the assay, cell lysates were probed with anti iNOS antibody. Compound of formula (A) inhibits the iNOS production in these cells (FIG. 38). […] Since iNOS is implicated in the pathology of diabetic complications, it is anticipated that Compound of formula (A) will have a protective effect in the development of neovascularization contributed by elevated iNOS. Inhibits LPS induced TNF-α and IL-6 Inhibition In Vivo: This study was undertaken when the mice are at 10-11 weeks in age. On Day 0 their body weights were measured and they were assigned to two groups of 6 mice each to get similar average group body weights. They were orally administered with either vehicle (deionized water, Group 1) or Compound of formula (A) (50 mg/kg; Group 2) daily between 9:30 and 10:30 AM for 10 days. The body weights were measured on day 3, 7 and 10 of the study before administration of vehicle or drug. On Day 10, the mice were administered LPS at 400 μg/kg, IP. After 1 hour they were orally administered with either vehicle or Compound of formula (A). […]
Serum TNF-α concentration for each group of mice is determined using the Quantikine. […] The optical density of each well was read at 450 nm using the Microplate Reader (FIG. 39).

IL-6 = experiment: LPS induced serum IL-6 in vivo; design: species or system mice; conditions: 50 mg/kg/day oral, 10 days, LPS 400 μg/kg IP, FIG. 40
From the text: as §1
Serum IL-6 concentration for each group of mice is determined using the Quantikine Mouse IL-6 Immunoassay kit. […] The optical density of each well was read at 450 nm Microplate Reader (FIG. 40).

3T3-L1 fibroblasts = experiment: Adipogenesis in 3T3-L1 mouse fibroblast (oil red O staining); assay type: cell-based; conditions: 1 μM or 10 μM, 7 days
Description: 3T3-L1 fibroblasts were seeded at a concentration of 10,000 cells/well in 24 well tissue culture plates in a total volume of 1 mL Dulbecco's Modified Eagle Medium (DMEM media) containing 10% fetal bovine serum, penicillin and streptomycin. […] After every two days, the media contents were replaced with fresh media and the drug. This process was carried out for 7 days. After 7 days of treatment, the cells were fixed in 10% formalin for 1 hour at […], stained with oil red 0 solution for 10 minutes and washed 6 times with 1×PBS to remove the excess stain. The plates were dried and visualized under 40× objective using Nikon E200 microscope and the pictures were taken by Nikon DXM 1200C digital camera.

[1] = tested on: bleomycin induced lung fibrosis; experiment: Bleomycin induced lung fibrosis (prophylactic); assay type: in vivo, C57BL/6 mice; conditions: 100 mg/kg p.o., 7 days before and 14 days after bleomycin; FIGS. 26 & 27
Description: Female C57BL/6 mice were used in this study. Animals were divided into four groups based on their body weight. To induce fibrosis bleomycin was administered at 0.1 U/animal (volume 50 μL) intratracheally to Group II (Disease control), Group III and Group IV, whereas Group I (Normal control) received only saline. The bleomycin challenged Group III and Group IV animals were treated with pentoxifylline (20 mg/kg p.o.) and compound of formula (A) (100 mg/kg p.o.) respectively, whereas Group I and the bleomycin challenged Group II animals received vehicle for 7 days before and 14 days after bleomycin administration. Body weight, feed and liquid intake and mortality rate were recorded. At the end of the study, animals were bled and plasma was stored in deep freezer (−80° C.) for biochemical parameters estimation. Then, the animals were sacrificed and lung tissue harvested and weighed. Right lung tissue was stored in deep freezer (−80° C.) for expression study and drug concentration analysis. The left lung tissues was fixed in formalin (10%) by slow infusion, then immersed and preserved in formalin (10%) for histopathology examination.

iNOS = iNOS inhibition in LPS challenged cells (anti iNOS antibody); assay type: cell-based; conditions: 30 μM, one hour preincubation, LPS 1 μg/mL for 6 hours, FIG. 38
From the text: as §1, with “(A). After another 90 minutes, the mice were euthanized by carbon dioxide asphyxiation. Blood was collected by cardiac puncture and was processed to obtain serum.” for “(A).”

In the case of `COC(=O)[C@@H](N)Cc1ccc(Oc2ccc(CC3SC(=O)NC3=O)cc2)cc1` (stereo partly drawn) [Compound of formula (A), Methyl(2S)-2-amino-3-(4-{4-[(2,4-dioxo-1,3-thiazolidin-5-yl)methyl]phenoxy}phenyl)propanoate], the lenticular degeneration (STZ induced diabetic rat) is reported as “significant improvement in lenticular degeneration”, the “Serum TNF-α level” value (TNF-α) is reported as “reduction in TNF-α” and the “Serum IL-6 level” value (IL-6) is reported as “reduction”. The “adipogenesis (intracellular lipids stained with oil red O)” value (3T3-L1 fibroblasts) was “did not induce adipogenesis”, the “lung fibrosis formation (histopathology)” value [1] was “significantly prevents fibrosis formation” and the iNOS production (iNOS) was “potent inhibitor of iNOS with activity superior to Rosiglitazone at equal concentrations”.
